Results as given in patent US20250179051A1, “PYRIMIDINLY-OXY-QUINOLINE BASED HERBICIDAL COMPOUNDS” (SYNGENTA CROP PROTECTION AG, priority 2022, published 2025).

Key:
Format in all cases: in vivo
Details in all cases: 250 g/ha, evaluated after 13 days, five-point scale
[1] = tested on: Amaranthus palmeri (AMAPA); assay: Pre-emergence herbicide glasshouse test
Protocol: (§1) Seeds of a variety of test species are sown in standard soil in pots Amaranthus retoflexus (AMARE), Amaranthus palmeri (AMAPA), Echinochloa crus-galli (ECHCG), Ipomoea hederacea (IPOHE), Setaria faberi (SETFA). After cultivation for one day (pre-emergence) or after 8 days cultivation (post-emergence) under controlled conditions in a glasshouse (at 24/16° C., day/night; 14 hours light; 65% humidity), the plants are sprayed with an aqueous spray solution derived from the formulation of the technical active ingredient in acetone/water (50:50) solution containing 0.5% Tween 20 (polyoxyethelyene sorbitan monolaurate, CAS RN 9005-64-5). Compounds are applied at 250 g/ha unless otherwise stated. The test plants are then grown in a glasshouse under controlled conditions in a glasshouse (at 24/16° C., day/night; 14 hours light; 65% humidity) and watered twice daily. After 13 days for pre and post-emergence, the test is evaluated for the percentage damage caused to the plant. The biological activities are shown in the following table on a five-point scale (5=81-100%; 4=61-80%; 3=41-60%; 2=21-40%; 1=0-20%).

[2] = tested on: Ipomoea hederacea (IPOHE); assay: Pre-emergence herbicide glasshouse test
Protocol: as §1

[3] = tested on: Setaria faberi (SETFA); assay: Pre-emergence herbicide glasshouse test
Protocol: as §1

[4] = tested on: Echinochloa crus-galli (ECHCG); assay: Pre-emergence herbicide glasshouse test
Protocol: as §1

[5] = tested on: Amaranthus retoflexus (AMARE); assay: Pre-emergence herbicide glasshouse test
Protocol: as §1

[6] = tested on: Amaranthus palmeri (AMAPA); assay: Post-emergence herbicide glasshouse test
Protocol: as §1

[7] = tested on: Ipomoea hederacea (IPOHE); assay: Post-emergence herbicide glasshouse test
Protocol: as §1

[8] = tested on: Setaria faberi (SETFA); assay: Post-emergence herbicide glasshouse test
Protocol: as §1

[9] = tested on: Echinochloa crus-galli (ECHCG); assay: Post-emergence herbicide glasshouse test
Protocol: as §1

[10] = tested on: Amaranthus retoflexus (AMARE); assay: Post-emergence herbicide glasshouse test
Protocol: as §1

Row | Compound | percentage damage caused to the plant, AMAPA [1] | percentage damage caused to the plant, IPOHE [2] | percentage damage caused to the plant, SETFA [3] | percentage damage caused to the plant, ECHCG [4] | percentage damage caused to the plant, AMARE [5] | percentage damage caused to the plant, AMAPA [6] | percentage damage caused to the plant, IPOHE [7] | percentage damage caused to the plant, SETFA [8] | percentage damage caused to the plant, ECHCG [9] | percentage damage caused to the plant, AMARE [10]
1 | Cn1nc(-c2nc(C(F)(F)F)nc3cccc(Oc4ncc(Cl)cn4)c23)cc1C(F)F [Compound 1.016, 5-(5-chloropyrimidin-2-yl)oxy-4-[5-(difluoromethyl)-1-methyl-pyrazol-3-yl]-2-(trifluoromethyl)quinazoline] | 2 (2=21-40%) | 1 (1=0-20%) | 1 (1=0-20%) | 1 (1=0-20%) | 1 (1=0-20%) | 2 (2=21-40%) | 2 (2=21-40%) | 1 (1=0-20%) | 1 (1=0-20%) | 2 (2=21-40%)
2 | CC(=NOCC(F)(F)F)c1nc(C(F)(F)F)nc2cccc(Oc3ncc(Cl)cn3)c12 [Compound 1.018, 1-[5-(5-chloropyrimidin-2-yl)oxy-2-(trifluoromethyl)quinazolin-4-yl]-N-(2,2,2-trifluoroethoxy) ethanimine] | 1 (1=0-20%) | 1 (1=0-20%) | 1 (1=0-20%) | 1 (1=0-20%) | 1 (1=0-20%) | 2 (2=21-40%) | 2 (2=21-40%) | 1 (1=0-20%) | 1 (1=0-20%) | 2 (2=21-40%)
3 | FC(F)(F)c1nc(CCCC2CC2)c2c(Oc3ncc(Cl)cn3)cccc2n1 [Compound 1.019] | 5 (5=81-100%) | 1 (1=0-20%) | 5 (5=81-100%) | 4 (4=61-80%) | 4 (4=61-80%) | 5 (5=81-100%) | 3 (3=41-60%) | 5 (5=81-100%) | 2 (2=21-40%) | 5 (5=81-100%)
4 | ON=CCCc1nc(C(F)(F)F)nc2cccc(Oc3ncc(Cl)cn3)c12 [Compound 1.021] | 4 (4=61-80%) | 1 (1=0-20%) | 3 (3=41-60%) | 3 (3=41-60%) | 4 (4=61-80%) | 4 (4=61-80%) | 2 (2=21-40%) | 2 (2=21-40%) | 2 (2=21-40%) | 5 (5=81-100%)
5 | CO/N=C\CCc1nc(C(F)(F)F)nc2cccc(Oc3ncc(Cl)cn3)c12 [Compound 1.022, (Z)-3-[5-(5-chloropyrimidin-2-yl)oxy-2-(trifluoromethyl)quinazolin-4-yl]-N-methoxy-propan-1-imine] | 5 (5=81-100%) | 4 (4=61-80%) | 5 (5=81-100%) | 5 (5=81-100%) | 5 (5=81-100%) | 4 (4=61-80%) | 3 (3=41-60%) | 4 (4=61-80%) | 4 (4=61-80%) | 4 (4=61-80%)
6 | CON1CCC(CCc2nc(C(F)(F)F)nc3cccc(Oc4ncc(Cl)cn4)c23)CC1 [Compound 1.023, 5-(5-chloropyrimidin-2-yl)oxy-4-[2-(1-methoxy-4-piperidyl)ethyl]-2-(trifluoromethyl)quinazoline] | 4 (4=61-80%) | 1 (1=0-20%) | 1 (1=0-20%) | 2 (2=21-40%) | 4 (4=61-80%) | 4 (4=61-80%) | 3 (3=41-60%) | 1 (1=0-20%) | 1 (1=0-20%) | 4 (4=61-80%)
7 | COCCCc1nc(C(F)(F)F)nc2cccc(Oc3ncc(Cl)cn3)c12 [Compound 1.024] | 5 (5=81-100%) | 5 (5=81-100%) | 4 (4=61-80%) | 5 (5=81-100%) | 5 (5=81-100%) | 3 (3=41-60%) | 3 (3=41-60%) | 4 (4=61-80%) | 5 (5=81-100%) | 4 (4=61-80%)
8 | CO/N=C/CCc1nc(C(F)(F)F)nc2cccc(Oc3ncc(Cl)cn3)c12 [Compound 1.025, (E)-3-[5-(5-chloropyrimidin-2-yl)oxy-2-(trifluoromethyl)quinazolin-4-yl]-N-methoxy-propan-1-imine] | 5 (5=81-100%) | 4 (4=61-80%) | 5 (5=81-100%) | 5 (5=81-100%) | 5 (5=81-100%) | 4 (4=61-80%) | 4 (4=61-80%) | 5 (5=81-100%) | 5 (5=81-100%) | 5 (5=81-100%)
9 | O=C(c1ccc(Br)cn1)c1nc(C(F)(F)F)nc2cccc(Oc3ncc(Cl)cn3)c12 [Compound 1.026] | 4 (4=61-80%) | 1 (1=0-20%) | 1 (1=0-20%) | 1 (1=0-20%) | 4 (4=61-80%) | 2 (2=21-40%) | 1 (1=0-20%) | 1 (1=0-20%) | 1 (1=0-20%) | 1 (1=0-20%)
10 | O=C(c1ccc(F)cn1)c1nc(C(F)(F)F)nc2cccc(Oc3ncc(Cl)cn3)c12 [Compound 1.027] | 2 (2=21-40%) | 1 (1=0-20%) | 1 (1=0-20%) | 1 (1=0-20%) | 2 (2=21-40%) | 1 (1=0-20%) | 1 (1=0-20%) | 1 (1=0-20%) | 1 (1=0-20%) | 2 (2=21-40%)
11 | CC(=O)c1nc(C(F)(F)F)nc2cccc(Oc3ncc(Cl)cn3)c12 [Compound 1.028, 1-[5-(5-chloropyrimidin-2-yl)oxy-2-(trifluoromethyl)quinazolin-4-yl]ethanone] | 5 (5=81-100%) | 1 (1=0-20%) | 3 (3=41-60%) | 2 (2=21-40%) | 5 (5=81-100%) | 4 (4=61-80%) | 3 (3=41-60%) | 2 (2=21-40%) | 1 (1=0-20%) | 4 (4=61-80%)
12 | O=C(c1ccccn1)c1nc(C(F)(F)F)nc2cccc(Oc3ncc(Cl)cn3)c12 [Compound 1.029, [5-(5-chloropyrimidin-2-yl)oxy-2-(trifluoromethyl)quinazolin-4-yl]-(2-pyridyl) methanone] | 1 (1=0-20%) | 1 (1=0-20%) | 1 (1=0-20%) | 1 (1=0-20%) | 1 (1=0-20%) | 1 (1=0-20%) | 1 (1=0-20%) | 1 (1=0-20%) | 1 (1=0-20%) | 1 (1=0-20%)
